Laboratory results from US12396995B2, “Substituted 4-aminoisoindoline-1,3-dione compounds and second active agents for combined use” (Celgene Corporation, priority 2019, dated 2025).

Assays:
[1] = system: WSU-DLCL2 DLBCL xenograft tumors; assay: WSU-DLCL2 (DLBCL) xenograft model, Compound 1 alone and with tazemetostat; type: in vivo, female SCID mice
Description: Anti-tumor activity of Compound 1 alone and in combination with tazemetostat was studied in WSU-DLCL2 (DLBCL) xenograft model. Compound 1 (1 mg/kg) was administered once daily for 5 consecutive days followed by 2 days off (5 D on/2 D off) and tazemetostat (200 mg/kg) was administered twice daily (BID).
Methods: Xenograft study was conducted with female SCID mice bearing WSU-DLCL2 DLBCL xenograft tumors. Female SCID mice were inoculated subcutaneously with WSU-DLCL2 cells in the flank region above the right hind leg. Following inoculation of animals, the tumors were allowed to grow to approximately 200 mm^3 prior to randomization. On day 14 following tumor cell inoculation, the mice bearing WSU-DLCL2 tumors ranging between 150 and 250 mm^3 were pooled together and randomized into various treatment groups. Compound 1 was formulated in 0.5% Methyl Cellulose, 0.25% Tween 80 and 50 mM Citrate pH 3 in water. Tazemetostat was formulated in CMC-Tween. Compound 1 (1 mg/kg) was orally administered with three cycles of once daily for 5 consecutive days followed by 2 days off starting from day 14 after tumor cell inoculation. Tazemetostat 200 mg/kg) was orally administered twice day (BID) for three weeks. In combination group the animals received Compound 1 (1 mg/kg/5 D on/2 D off) and tazemetostat (200 mg/kg, BID) simultaneously for three weeks starting from day 14 after tumor cell inoculation. Tumors were measured twice a week using calipers and tumor volumes were calculated using the formula of W^2×L/2. Statistical analysis was performed using a one-way or 2-way analysis of variance (ANOVA). Synergy calculations were performed using fractional product method.

[2] = system: panel of DLBCL cell lines; assay: CellTiter-Glo proliferation, Compound 1 with BET inhibitor Compound B; type: cell-based; details: Combinations of Compound B and Compound 1; 40 DLBCL cell lines; 5 days
Description: A panel of DLBCL cell lines in the following table were treated with single-agent Compound 1, single agent Compound B (a BET inhibitor), along with the combinations of Compound 1 and Compound B, at a concentration range to investigate the antiproliferative activities.
Experimental procedures: CellTiter-Glo (CTG), a luminescent dye that measures adenosine-5′-triphosphate (ATP), was used to quantify the cell proliferation across a panel of 40 unique DLBCL cell lines. Single agents and combinations were pre-spotted into 384-well plates (diluted in final dimethyl sulfoxide [DMSO] concentration of 0.1% for a maximal volume of 50 μL). […]
For each DLBCL cell line, 50 μL of cell suspension at their respective seeding densities of 0.025 to 0.2×10^6 cells per mL were added to 384-well plates containing the compounds. The effect of the single agents and combinations on the proliferation/viability of cells was assessed after 5 days of incubation. Twenty-five microliters of CTG per well was then dispensed to the cell suspension, and ATP released by viable cells was measured after a 30-minute incubation as relative luminescence units (RLU) using an EnVision plate reader (PerkinElmer, Covina, CA). […]

[3] = system: primary CLL cells (CD5+CD19+ tumor cells); assay: Ex vivo apoptosis of B-cell CLL patient cells, Compound 1 with ibrutinib (flow cytometry, Caspase 3); type: cell-based, human; details: 144 hrs
Description: After 144 hrs of treatment with both the agents, flow cytometric analysis was used to determine the number of tumor cells that were viable or apoptotic.
The tumor cell count was assessed by staining the patient PBMCs in each condition with tumor cell surface markers CD5 & CD19 along with Live/Dead fixable dye to exclude the dead cells and followed by intracellular staining for Caspase3 antibody to identify the apoptotic cells and was measured by flow cytometry (Attune NxT, Thermo Fisher). The live tumor cell count for each condition was calculated by normalizing to the precision count beads added to each sample.
For apoptosis analysis, the percentage of apoptosis combining both “early” (Caspase 3 positive and Live-Dead fixable dye negative) and “late” apoptosis (Caspase 3 and Live-Dead fixable dye positive) cell gates subtracting the baseline DMSO value was graphed using GraphPad Prism 8.0.0.0. The Ymax (maximal percentage of apoptosis achieved) values from apoptosis curves were calculated by performing a nonlinear regression curve fitting using log(agonist) vs. normalized response—Variable slope analysis and identifying the maximum value on GraphPad Prism 8.0.0 (Table 9).

`O=C1CC[C@H](N2C(=O)c3cccc(NCc4ccc(CN5CC(N6CCOCC6)C5)cc4F)c3C2=O)C(=O)N1` [Compound 1, (S)-2-(2,6-dioxopiperidin-3-yl)-4-((2-fluoro-4-((3-morpholinoazetidin-1-yl)methyl)benzyl)amino)isoindoline-1,3-dione] was tested, and the “combination antitumor activity (fractional product method)” value ([1]; Compound 1 1 mg/kg and tazemetostat 200 mg/kg) was “synergistic”, the “tumor volume reduction compared to vehicle control” value ([1]; Compound 1 1 mg/kg in combination with tazemetostat 200 mg/kg) was 93.7% and the “inhibition of tumor growth” value ([1]; single agent Compound 1 1 mg/kg oral, 5 D on/2 D off, three cycles) was −45.6%. The “combination effect on proliferation (Bliss independence and HSA models)” value [2] was “synergy and additivity in the majority of DLBCL cell lines”, the “Ymax of Pt 11 (%), maximal apoptosis” value ([3]; DMSO + Cpd1 DRC (no ibrutinib)) was 14.40% and the “Ymax of Pt 12 (%), maximal apoptosis” value ([3]; DMSO + Cpd1 DRC (no ibrutinib)) was 14.19%. The “Ymax of Pt 13 (%), maximal apoptosis” value ([3]; DMSO + Cpd1 DRC (no ibrutinib)) was 36.93%, the “Ymax of Pt 14 (%), maximal apoptosis” value ([3]; DMSO + Cpd1 DRC (no ibrutinib)) was 17.21% and the “Ymax of Pt 11 (%), maximal apoptosis” value ([3]; ibrutinib 0.001 uM + Cpd1 DRC) was 19.80%. For the same compound, the “Ymax of Pt 12 (%), maximal apoptosis” value ([3]; ibrutinib 0.001 uM + Cpd1 DRC) was 15.67%, the “Ymax of Pt 13 (%), maximal apoptosis” value ([3]; ibrutinib 0.001 uM + Cpd1 DRC) was 26.75% and the “Ymax of Pt 14 (%), maximal apoptosis” value ([3]; ibrutinib 0.001 uM + Cpd1 DRC) was 17.87%. The “Ymax of Pt 11 (%), maximal apoptosis” value ([3]; ibrutinib 0.01 uM + Cpd1 DRC) was 18.66%, the “Ymax of Pt 12 (%), maximal apoptosis” value ([3]; ibrutinib 0.01 uM + Cpd1 DRC) was 13.66% and the “Ymax of Pt 13 (%), maximal apoptosis” value ([3]; ibrutinib 0.01 uM + Cpd1 DRC) was 30.53%. For the same compound, the “Ymax of Pt 14 (%), maximal apoptosis” value ([3]; ibrutinib 0.01 uM + Cpd1 DRC) was 18.30%, the “Ymax of Pt 11 (%), maximal apoptosis” value ([3]; ibrutinib 0.1 uM + Cpd1 DRC) was 12.33% and the “Ymax of Pt 12 (%), maximal apoptosis” value ([3]; ibrutinib 0.1 uM + Cpd1 DRC) was 17.47%. The “Ymax of Pt 13 (%), maximal apoptosis” value ([3]; ibrutinib 0.1 uM + Cpd1 DRC) was 32.49%, the “Ymax of Pt 14 (%), maximal apoptosis” value ([3]; ibrutinib 0.1 uM + Cpd1 DRC) was 13.59% and the “Ymax of Pt 11 (%), maximal apoptosis” value ([3]; ibrutinib 1 uM + Cpd1 DRC) was 19.73%. The “Ymax of Pt 12 (%), maximal apoptosis” value ([3]; ibrutinib 1 uM + Cpd1 DRC) was 22.48%, the “Ymax of Pt 13 (%), maximal apoptosis” value ([3]; ibrutinib 1 uM + Cpd1 DRC) was 29.70% and the “Ymax of Pt 14 (%), maximal apoptosis” value ([3]; ibrutinib 1 uM + Cpd1 DRC) was 17.65%. For the same compound, the “Ymax of Pt 11 (%), maximal apoptosis” value ([3]; ibrutinib 10 uM + Cpd1 DRC) was 29.73%, the “Ymax of Pt 12 (%), maximal apoptosis” value ([3]; ibrutinib 10 uM + Cpd1 DRC) was 24.18% and the “Ymax of Pt 13 (%), maximal apoptosis” value ([3]; ibrutinib 10 uM + Cpd1 DRC) was 35.37%. The “Ymax of Pt 14 (%), maximal apoptosis” value ([3]; ibrutinib 10 uM + Cpd1 DRC) was 19.33%.
